Measured values reported in patent publication US11931373B2, “HSP90 activator AHA1 drives production of pathological tau aggregates” (University of South Florida, priority 2017, dated 2024).

Experiments:
[1] = biological target: T1, Aha1 and Hsp90 complexes (Homo sapiens, UniProt O95433); experiment: Co-immunoprecipitation of Hsp90α with Aha1 from PC3-MM2 cells; format: cell-based; conditions: 10 μM, 24 hours
T1 construct: endogenous in cells; host or cells: PC3-MM2 cells
Experimental: (§1) Co-immunoprecipitation. Co-immunoprecipitation of Hsp90α with Aha1 from PC3-MM2 and iHek P301L cells incubated with the indicated compounds for 24 hours were performed as previously described (Ghosh, et al. ACS Chem. Biol. 2015, 10, 577-590).

[2] = system: Hsp90; experiment: Luciferase refolding assay in PC3-MM2 cells; format: cell-based; conditions: 2 hours; for Hsp90-mediated refolding of denatured luciferase: 0.097-100 μM; for IC50 of Hsp90-mediated luciferase refolding activity: concentrations examined 100, 25, 6.25, 1.56, 0.39 and 0.097 μM
Experimental: Luciferase refolding assay. Compound dissolved in DMSO at the indicated concentrations or a DMSO control was evaluated in a luciferase refolding assay in PC3-MM2 cells as previously described (Hall, et al. J. Med. Chem. 2016, 59, 925-933) and dose-response curves of the luminescence signal relative to DMSO control were generated using GraphPad Prism 5.0.

[3] = system: recombinant P301L tau fibrils; experiment: Transmission electron microscopy of tau fibrils; format: biochemical, human; conditions: KU-177 vs DMSO control
Experimental: (§2) Protein Expression. Recombinant human P301L tau, Aha1, Aha1 E67K, p23, FKBP51, FKBP52, and CDC37 were expressed and purified. Hsp90α protein was a kind gift from Dr. Johannes Buchner. Recombinant human P301L tau, Aha1, Aha1 E67K, p23, FKBP51, FKBP52, and CDC37 were cloned into bacterial expression vector, pet28a with a His tag followed by a TEV sequence. Plasmids were transformed into E. coli (BL21) one-shot star cells and plated onto kanamycin-agar plates. Plates were grown at 37° C. for approximately 16 hours. 10 mL LB broth with kanamycin starter cultures were then inoculated with a colony and the starter culture grown for 8 hours. 1 L cultures were then inoculated at 1:100 dilution and grown to OD600 of 0.8. Cultures were induced with the addition of 1 mM IPTG and the incubator temperature was reduced to 16° C. Cultures were then grown for 14 hours. Cells were then pelleted at 3,500×g for 30 minutes and supernatant discarded. Pellets were resuspended in lysis buffer (20 mM Tris-HCl pH 8.0, 500 mM NaCl, 10 mM Imidazole with protease inhibitors) and frozen at −80° C. Bacterial pellets were then thawed and lysed by sonication. Lysates were then spun at 50,000×g for 1 hr. Next, the supernatant was purified by nickel affinity chromatography (Nickel Resin, Fisher #PI88222). Protein purity and expression was then checked by Coomassie stained SDS-PAGE. […]

[4] = biological target: T2, Recombinant human P301L tau with Hsp90 and Aha1 (Homo sapiens, UniProt O95433); experiment: Thioflavin T fluorescence assay of tau fibril formation; format: biochemical; conditions: 10 μM compound vs DMSO, tau with Hsp90 alone or Hsp90 and Aha1
T2 construct: His tag (with TEV site) (N, cleaved yes); made in house; host or cells: E. coli (BL21) one-shot star, pet28a (tau and Aha1); Hsp90α was a gift from Dr. Johannes Buchner
T2 sequence (O95433 whole entry, stated change not applied): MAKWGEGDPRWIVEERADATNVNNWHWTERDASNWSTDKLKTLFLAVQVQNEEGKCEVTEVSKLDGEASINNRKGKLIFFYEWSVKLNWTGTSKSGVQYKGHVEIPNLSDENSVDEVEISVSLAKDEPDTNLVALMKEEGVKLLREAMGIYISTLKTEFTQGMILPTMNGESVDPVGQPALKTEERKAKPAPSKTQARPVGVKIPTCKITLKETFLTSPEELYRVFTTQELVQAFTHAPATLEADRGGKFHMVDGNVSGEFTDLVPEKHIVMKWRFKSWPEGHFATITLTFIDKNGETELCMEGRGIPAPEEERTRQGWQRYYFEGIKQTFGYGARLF
Experimental: as §2, with “hr.” for “hr. Next, the supernatant was purified by nickel affinity chromatography (Nickel Resin, Fisher #PI88222). Protein purity and expression was then checked by Coomassie stained SDS-PAGE.”
Thioflavin T Fluorescence Assay. […] Fluorescence was read at 440 nm excitation and 482 nm emission in a BioTek Synergy H1 plate reader at indicated time points. […]

[5] = biological target: T3, binding of Aha1 to Hsp90 (Homo sapiens, UniProt O95433); experiment: Co-immunoprecipitation of Hsp90 with Aha1 from iHEK cells; format: cell-based; conditions: 10 μM, 24 hours
T3 construct: Immunoprecipitated Aha1 from iHEK cells treated±10 μM KU-177 for 24 hours; endogenous in cells; host or cells: iHEK-P301L cells (tetracycline-inducible P301L tau)
Experimental: (§3) Cell culture and transfection. iHek-P301L cells (Ghosh, et al. ACS Med. Chem. Lett. 2016, 7, 813-818) and luciferase expressing PC3-MM2 cells (Ghosh, et al. ACS Med. Chem. Lett. 2016, 7, 813-818) were cultured in DMEM media supplemented with 10% FBS and 1% Penicillin-Streptomycin (Invitrogen). Inducible cells were incubated with 3 μg of tetracycline for 72 h. 48 h prior to harvest, transfections were performed with 2.5 μL Lipofectamine 2000 (Invitrogen) per 1 μg of DNA, which was incubated in serum-free Opti-MEM for 5 minutes before adding the mixture dropwise to the cells. KU-177 was added 24 h prior to harvest at indicated concentrations. Cells were harvested in Tsaio TBS buffer (50 mM Tris Base, 274 mM NaCl, 5 mM KCl, pH 8.0) containing protease inhibitors. Samples were prepared as previously described (Ramsden, et al. J. Neurosci. 2005, 25, 10637-10647) to obtain soluble (S1) and sarkosyl-insoluble (P3) fractions.
as §1

[6] = system: tau in iHEK-P301L cells; experiment: Soluble and sarkosyl-insoluble tau in iHEK-P301L cells (Western blot); format: cell-based; conditions: 10 μM
Experimental: as §3
Western blot and dot blot analysis. Cell and mouse brain tissues samples were analyzed by Western blot using 4-15% SDS gradient gels (BioRad). Antibody dilutions were 1:1000 unless otherwise stated, and all secondary antibodies were used at 1:1000 (Southern Biotech). Blots were developed using ECL (Pierce) on a LAS-4000 mini imager (GE Healthcare). For dot blots, proteins were applied onto a wet nitrocellulose membrane and dried by vacuum. […]

T1 sequence (O95433 whole entry, one chain of several): as the sequence (O95433 whole entry, stated change not applied) above

COc1cccc(-c2cc(C(=O)Nc3cc4ccc(O[C@@H]5OC(C)(C)[C@H](OC)C(O)[C@@H]5O)c(OC)c4oc3=O)ccc2OC)c1 (stereo partly shown) [KU-174]
Aha1 and Hsp90 complexes (immunoprecipitation of Aha1, Western blot) [1]: inhibited
Hsp90-mediated refolding of denatured luciferase [2]: inhibited

COc1cccc(-c2cc(C(=O)Nc3cc4ccc(OC(C)=O)c(OC)c4oc3=O)ccc2OC)c1 [KU-177]
tau fibril formation observed by TEM [3]: robust reduction in tau fibril formation
Recombinant P301L tau fibril formation measured by ThT fluorescence [4]: significantly reduce tau fibril formation
Aha1 and Hsp90 complexes (immunoprecipitation of Aha1, Western blot) [1]: inhibited
binding of Aha1 to Hsp90 (immunoprecipitation of Aha1, Western blot) [5]: inhibited the binding of Aha1 to Hsp90
Hsp90-mediated refolding of denatured luciferase [2]: did not inhibit
IC50 of Hsp90-mediated luciferase refolding activity [2]: higher than the range of concentrations examined here
sarkosyl-insoluble tau ([6]; iHEK-P301L cells transfected with Aha1-WT, Aha1-E67K or empty vector): reduce insoluble tau
soluble, phosphorylated tau ([6]; iHEK-P301L cells): increased soluble, phosphorylated tau

COc1cccc(-c2cc(C(=O)Nc3cc4ccc(O)c(OC)c4oc3=O)ccc2OC)c1 [KU-308]
Aha1 and Hsp90 complexes (immunoprecipitation of Aha1, Western blot) [1]: inhibited
Hsp90-mediated refolding of denatured luciferase [2]: did not inhibit
IC50 of Hsp90-mediated luciferase refolding activity [2]: higher than the range of concentrations examined here
